Reference: patent publication US10092613B2 (NATUREX, S.A., priority 2008, dated 2018)
Several values for one entry are separate records, joined by “and”; a condition that tells them apart may be missing. Identical values can stand only once. Like-named read-outs stand apart in the source and are kept apart here. Each block holds one compound with its values, some of them ahead of it.

Key:
[1] = Urinary excretion of CGA and metabolites after 400 mg green coffee extract, ten volunteers; assay type: in vivo, human
Protocol: (§1) In a further phase of the study, ten non-smoker volunteers (22-55 y), five male and five female, were recruited. Subjects were instructed to avoid consumption of phenolic-containing foods during the 48 h prior to the study. They were asked to eat only animal foods, refined cereal foods and artificial beverages. On the day of the study, after 10-12 h overnight fasting, an I.V. catheter was inserted into the antecubital vein and a baseline heparinized blood sample was obtained. […] Blood samples were collected into heparin-containing tubes. Baseline blood aliquots were used to determine hematocrit and hemoglobin levels by standard methods. Plasma samples were obtained by centrifugation of the blood samples immediately after being drawn. Urine samples were also collected at baseline interval (minus 2-0 h) and at intervals of 0-2 h; 2-4 h; 4-6 h and 6-8 h after coffee consumption into appropriate plastic containers. Total urine volume was measured for each collection period. Plasma and urine aliquots for determination of CGA were acidified with HCl and kept frozen in liquid nitrogen until analyses. Urine aliquots for determination of creatinine were acidified with HCl and kept at −20° C. until analyses.
(§2) Results of CGA and phenolic acids in urine were normalized by creatinine excretion.

[2] = Plasma pharmacokinetics of CGA and metabolites after 400 mg green coffee extract, ten volunteers; assay type: in vivo, human; conditions: for contribution to total phenolics in plasma: after green coffee extract consumption; for Cmax / AUC / Tmax: plasma, 400 mg green coffee extract oral, mean ± SD, n = 10; for molar ratio 3,5-diCQA:4,5-diCQA:3,4-diCQA in plasma / molar ratio 5-CQA:4-CQA:3-CQA in plasma: ratios of AUC in plasma; for contribution to AUC of total phenolic compounds in plasma: mean values of plasma AUC
Source text: as §1, with “Subjects were instructed to avoid consumption of phenolic-containing foods during the 48 h prior to the study.” left out, “beverages.” for “beverages. On the day of the study, after 10-12 h overnight fasting, an I.V. catheter was inserted into the antecubital vein and a baseline heparinized blood sample was obtained.”
as §2

[3] = target: T1, hepatic Glc-6-Pase system (Homo sapiens, UniProt O43826); assay: Glc-6-Pase hydrolysis in intact human liver microsomes (phosphate release); assay type: biochemical; conditions: for Percentage inhibition of G6Pase: each compound at its naturally occurring concentration in 0.6 mM extract, 2 mM substrate; for Contribution to Glc-6-Pase system inhibition by the green coffee extract: inhibition of compound divided by inhibition of 0.6 mM total CGAs from the extract
T1 construct: Glc-6-Pase hydrolysis in intact human liver microsomes; tissue BD Biosciences; host or cells: pooled human liver microsomes, intact
T1 sequence (O43826 1-429): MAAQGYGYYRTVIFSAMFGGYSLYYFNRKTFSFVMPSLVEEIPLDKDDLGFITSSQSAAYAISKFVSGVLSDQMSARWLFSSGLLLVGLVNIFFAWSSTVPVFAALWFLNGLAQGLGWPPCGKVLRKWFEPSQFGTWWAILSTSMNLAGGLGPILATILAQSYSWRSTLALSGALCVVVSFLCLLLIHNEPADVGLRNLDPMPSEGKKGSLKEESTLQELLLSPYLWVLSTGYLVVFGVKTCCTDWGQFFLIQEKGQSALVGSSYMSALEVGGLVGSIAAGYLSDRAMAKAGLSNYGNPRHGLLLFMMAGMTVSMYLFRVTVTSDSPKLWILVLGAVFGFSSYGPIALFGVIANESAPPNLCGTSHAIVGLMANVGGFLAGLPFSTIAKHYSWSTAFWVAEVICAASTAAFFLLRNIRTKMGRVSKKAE
Protocol: A secondary purpose of Example 8 was to determine the inhibitory effects of a series of structurally-related compounds in the extract, such as caffeoylquinic acids and caffeoylferuloylquinic acids. Example 8 tested whether the extract could inhibit the hepatic Glc-6-Pase system by measuring enzymatic activity in human liver microsomes. These experiments were conducted with or without the extract at final CGA concentrations of 0.2, 0.4 and 0.6 mM. The effect of the extract on Glc-6-Pase activity was tested as a function of […] substrate concentration (2-10 mM).
Measurement of Glc-6-Pase Activity in Microsomes: Microsomal Glc-6-Pase activity was measured on the basis of the rate of release of phosphate under the assay conditions that were described by Wallert et al., Kinetic analysis of glucose-6-phosphatase: an investigative approach to carbohydrate metabolism and kinetics. Biochem. Mol. Biol. Educ. 2001, 29, 199-203. The enzyme assays were performed at 37° C. in a final volume of […] containing 100 mM cacodylic acid, pH 6.5 and concentrations of the substrate […] ranging from 2 to 10 mM.
The reaction was started by adding intact microsomes and was stopped with the addition of 3.2 mL of colorimetric reagent [9 volumes of molybdate (0.42% ammonium molybdate in 1 N H2SO4), 2 volumes of 5% SDS and 1 volume of 10% ascorbic acid, freshly prepared and stored on ice for a maximum of 6 h]. All samples were incubated for 30 minutes at 45° C., and the absorbance of the phosphate-molybdate complex was measured at 820 nm.
Microsomal intactness was quantified by measuring Man-6-Pase activity. Anion, W J. Measurement of intactness of rat liver endoplasmic reticulum. Methods Enzymol. 1989, 174, 58-67. In a preliminary study, Glc-6-Pase activity in intact human liver microsomes was determined on the basis of microsomal protein concentration and incubation time to obtain optimal experimental conditions, that is, 100 μg of microsomal proteins and 5 minutes of incubation (data not shown). Quantification was performed at optimal wavelengths (330 nm) for the CGAs during chromatographic separation. Samples were filtered (0.45 μm), and 2 μL was injected directly. The standard deviation for three analyses of the same sample was <5% for all compounds.
Preparation of Test Compounds: Stock solutions of test compounds were prepared in ultrapure water (pH 6.5) and diluted with assay reagent to the final concentrations.
Enzymatic activity was expressed as micromoles of phosphate released per minute per milligram of protein. Results were expressed as means±standard deviation (SD) of three independent experiments. Percentage of inhibition of Glc-6 Pase system activity was calculated by dividing the initial rate of reaction in microsomes that were treated with individual compounds by the initial rate of reaction in untreated microsomes. […] Statistical analysis was performed using an ANOVA test followed by a post hoc Tukey test under a normality assumption (Shapiro Wilk) or Kruskall Wallis nonparametric test followed by Bonferroni adjusted Mann-Whitney test otherwise; p<0.05 was considered to be significant. […]

Glc-6-Pase [4] = conditions: intact rat microsomes; cited from earlier work
Glc-6-Pase [5] = target: T2, Glc-6-Pase (Rattus norvegicus, UniProt P43428); conditions: fully disrupted microsomes; cited from earlier work
T2 construct: host or cells: rat microsomes (liver)
T2 sequence (P43428 1-357): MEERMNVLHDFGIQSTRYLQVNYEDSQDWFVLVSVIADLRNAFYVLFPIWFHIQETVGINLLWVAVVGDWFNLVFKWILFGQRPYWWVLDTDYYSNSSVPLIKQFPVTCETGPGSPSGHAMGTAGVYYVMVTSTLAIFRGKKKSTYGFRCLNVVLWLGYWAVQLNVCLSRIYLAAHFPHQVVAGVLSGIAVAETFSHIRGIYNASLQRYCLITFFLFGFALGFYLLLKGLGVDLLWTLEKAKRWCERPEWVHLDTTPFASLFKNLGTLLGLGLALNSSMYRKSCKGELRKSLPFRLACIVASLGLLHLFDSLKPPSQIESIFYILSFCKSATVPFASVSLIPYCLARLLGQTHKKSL

[6] = both sexes, human, po, 400 mg, read-out: AUC
[7] = both sexes, human, po, 400 mg, read-out: Tmax

total urinary excretion ([1]; subject 1, 0-8 h after consumption): 43.47 µmol
total urinary excretion ([1]; subject 1, Baseline): 9.24 µmol
total urinary excretion ([1]; subject 2, 0-8 h after consumption): 18.67 µmol
total urinary excretion ([1]; subject 2, Baseline): 3.55 µmol
total urinary excretion ([1]; subject 3, 0-8 h after consumption): 9.41 µmol
total urinary excretion ([1]; subject 3, Baseline): 1.86 µmol
total urinary excretion ([1]; subject 4, 0-8 h after consumption): 7.98 µmol
total urinary excretion ([1]; subject 4, Baseline): 0.70 µmol
total urinary excretion ([1]; subject 5, 0-8 h after consumption): 25.45 µmol
total urinary excretion ([1]; subject 5, Baseline): 10.19 µmol
total urinary excretion ([1]; subject 6, Baseline): 10.57 µmol
total urinary excretion ([1]; subject 7, 0-8 h after consumption): 14.03 µmol
total urinary excretion ([1]; subject 7, Baseline): 0.25 µmol
total urinary excretion ([1]; subject 8, 0-8 h after consumption): 68.21 µmol
total urinary excretion ([1]; subject 8, Baseline): 6.79 µmol
total urinary excretion ([1]; subject 9, 0-8 h after consumption): 57.69 µmol
total urinary excretion ([1]; subject 9, Baseline): 1.68 µmol
total urinary excretion ([1]; subject 10, 0-8 h after consumption): 112.22 µmol
total urinary excretion ([1]; subject 10, Baseline): 25.25 µmol
Structure (SMILES): O=C(O)c1cc(O)c(O)c(O)c1 [Gallic Acid]

contribution to total phenolics in plasma [2]: 6.1%
Cmax ([2]; both sexes, human, po, 400 mg): 900 ± 200 nM
AUC [2, 6]: 3.5 ± 1.9 µM·h
Tmax [2, 7]: 2.9 ± 1.8 h
Structure (SMILES): COc1ccc(/C=C/C(=O)O)cc1O [Isoferulic acid]

contribution to total phenolics in plasma [2]: 6.6%
Cmax ([2]; both sexes, human, po, 400 mg): 1100 ± 900 nM
AUC [2, 6]: 3.8 ± 3.2 µM·h
Tmax [2, 7]: 3.6 ± 2.1 h
Structure (SMILES): O=C(O)/C=C/c1ccc(O)c(O)c1 [Caffeic acid]

contribution to total phenolics in plasma [2]: 1.4%
Cmax ([2]; both sexes, human, po, 400 mg): 400 ± 30 nM
AUC [2, 6]: 0.8 ± 0.2 µM·h
Tmax [2, 7]: 2.5 ± 1.8 h
Structure (SMILES): O=C(O)/C=C/c1ccc(O)cc1 [p-coumaric acid]

Percentage inhibition of G6Pase [3]: 6.9 ± 4.3%
Contribution to Glc-6-Pase system inhibition by the green coffee extract [3]: 19%
Cmax ([2]; both sexes, human, po, 400 mg): 1500 ± 1600 nM
AUC [2, 6]: 5 ± 4.9 µM·h
Tmax [2, 7]: 2.6 ± 1.8 h
molar ratio 3,5-diCQA:4,5-diCQA:3,4-diCQA in plasma [2]: 1.0
Structure (SMILES): O=C(C=Cc1ccc(O)c(O)c1)OC1CC(O)(C(=O)O)CC(O)C1OC(=O)C=Cc1ccc(O)c(O)c1 (stereo not shown) [3,4-diCQA, 3,4-dicaffeoylquinic acid]

identification in urine ([1]; human, in vivo): not identified
Structure (SMILES): O=C(O)CNC(=O)c1ccccc1 [hippuric acid]

Percentage inhibition of G6Pase [3]: 13% and 12.8 ± 2.6%
Contribution to Glc-6-Pase system inhibition by the green coffee extract [3]: 35%
AUC [2]: 6.8 ± 5.7 µM·h
Cmax [2]: 2500 ± 3000 nM
Tmax [2]: 3.3 ± 2.5 h
molar ratio 3,5-diCQA:4,5-diCQA:3,4-diCQA in plasma [2]: 1.4
Structure (SMILES): O=C(C=Cc1ccc(O)c(O)c1)OC1CC(O)(C(=O)O)CC(O)C1OC(=O)C=Cc1ccc(O)c(O)c1 (stereo not shown) [4,5-diCQA, 4,5-dicaffeoylquinic acid]

total urinary excretion ([1]; human, in vivo): 0.04 µmol
Percentage inhibition of G6Pase [3]: 14% and 14.4 ± 1.2%
Contribution to Glc-6-Pase system inhibition by the green coffee extract [3]: 40%
Cmax ([2]; both sexes, human, po, 400 mg): 1400 ± 1100 nM
AUC [2, 6]: 4.3 ± 5.4 µM·h
Tmax [2, 7]: 3.6 ± 2.2 h
contribution to AUC of total phenolic compounds in plasma [2]: 7.5%
molar ratio 5-CQA:4-CQA:3-CQA in plasma [2]: 1.4
Structure (SMILES): O=C(C=Cc1ccc(O)c(O)c1)OC1C(O)CC(O)(C(=O)O)CC1O (stereo not shown) [4-CQA, 4-caffeoylquinic acid]

Contribution to Glc-6-Pase system inhibition by the green coffee extract [3]: 0%
contribution to AUC of total phenolic compounds in plasma [2]: 5.2%
AUC [2]: 3.0 ± 4.5 µM·h
Cmax [2]: 900 ± 1400 nM
molar ratio 5-CQA:4-CQA:3-CQA in plasma [2]: 1.0
Structure (SMILES): O=C(C=Cc1ccc(O)c(O)c1)OC1CC(O)(C(=O)O)CC(O)C1O (stereo not shown) [3-CQA, 3-caffeoylquinic acid]

identification in urine ([1]; human, in vivo): not identified
Structure (SMILES): O=C(O)c1ccc(O)c(O)c1 [Protocatechuic acid]

contribution to total phenolics in plasma [2]: 6.2%
Cmax ([2]; both sexes, human, po, 400 mg): 800 ± 300 nM
AUC [2, 6]: 3.6 ± 1.5 µM·h
Tmax [2, 7]: 2.9 ± 1.8 h
Structure (SMILES): COc1cc(/C=C/C(=O)O)ccc1O [Ferulic acid]

identification in urine ([1]; human, in vivo): not identified
Structure (SMILES): COc1cc(CCC(=O)O)ccc1O [dihydroferulic acid]

content in baseline urine, variation among the subjects ([1]; both, human, in vivo): up to 0.35 μmol
Percentage inhibition of G6Pase [3]: 9.2 ± 1.4%
Contribution to Glc-6-Pase system inhibition by the green coffee extract [3]: 25%
contribution to AUC of total phenolic compounds in plasma [2]: 31.3%
AUC [2]: 17.9 ± 15.3 µM·h
Cmax [2]: 5900 ± 4200 nM
Tmax [2]: 3.3 ± 2.4 h
molar ratio 5-CQA:4-CQA:3-CQA in plasma [2]: 6.0
Structure (SMILES): O=C(C=Cc1ccc(O)c(O)c1)OC1CC(O)(C(=O)O)CC(O)C1O (stereo not shown) [5-CQA, 5-caffeoylquinic acid]
inhibition of Glc-6-Pase (Glc-6-Pase [4]): inhibits Glc-6-Pase
inhibition of Glc-6-Pase (Glc-6-Pase [5]): no effect

Contribution to Glc-6-Pase system inhibition by the green coffee extract [3]: 0%
Cmax ([2]; both sexes, human, po, 400 mg): 2700 ± 2700 nM
AUC [2, 6]: 8.7 ± 8.3 µM·h
Tmax [2, 7]: 3.2 ± 2.5 h
molar ratio 3,5-diCQA:4,5-diCQA:3,4-diCQA in plasma [2]: 1.7
Structure (SMILES): O=C(C=Cc1ccc(O)c(O)c1)OC1CC(O)(C(=O)O)CC(OC(=O)C=Cc2ccc(O)c(O)c2)C1O (stereo not shown) [3,5-diCQA, 3,5-dicaffeoylquinic acid]

Structure (SMILES): O=C(O)c1ccccc1 [benzoic acid]
identification in urine ([1]; before or after the extract consumption): not identified
